# Source: ChEMBL document CHEMBL4811221, “Diosgenin Derivatives as Potential Antitumor Agents: Synthesis, Cytotoxicity, and Mechanism of Action” (J Nat Prod, 2021)
# Tests used:
# HepG2 = assay: Cytotoxicity against human HepG2 cells assessed as cell growth inhibition measured after 24 hrs by MTT assay; type: functional, cell-based; details: HepG2, 24 h
# MCF7 = assay: Cytotoxicity against human MCF7 cells assessed as cell growth inhibition measured after 24 hrs by MTT assay; type: functional, cell-based; details: MCF7, 24 h
# A549 = assay: Cytotoxicity against human A549 cells assessed as cell growth inhibition measured after 24 hrs by MTT assay; type: functional, cell-based; details: A549, 24 h
# L02 = assay: Cytotoxicity against human L02 cells assessed as cell growth inhibition measured after 24 hrs by MTT assay; type: cell-based; details: L02, 24 h
smiles,measurement,setting,value
Cc1ccc(S(=O)(=O)N2CCN(C(=O)CCC(=O)O[C@H]3CC[C@@]4(C)C(=CC[C@H]5[C@@H]6C[C@@H]7O[C@]8(CC[C@@H](C)CO8)[C@@H](C)[C@@H]7[C@@]6(C)CC[C@@H]54)C3)CC2)cc1,IC50,HepG2,> 10 µM
same,IC50,MCF7,> 10 µM
same,IC50,A549,4.7 µM
C[C@@H]1CC[C@@]2(OC1)O[C@H]1C[C@H]3[C@@H]4CC=C5C[C@@H](OC(=O)/C=C\C(=O)N6CCCC6)CC[C@]5(C)[C@H]4CC[C@]3(C)[C@H]1[C@@H]2C,IC50,HepG2,> 10 µM
same,IC50,MCF7,> 10 µM
C[C@@H]1CC[C@@]2(OC1)O[C@H]1C[C@H]3[C@@H]4CC=C5C[C@@H](OC(=O)c6ccccc6C(=O)N6CCCC6)CC[C@]5(C)[C@H]4CC[C@]3(C)[C@H]1[C@@H]2C,IC50,HepG2,> 10 µM
same,IC50,MCF7,> 10 µM
C[C@@H]1CC[C@@]2(OC1)O[C@H]1C[C@H]3[C@@H]4CC=C5C[C@@H](OC(=O)CCC(=O)N6CCOCC6)CC[C@]5(C)[C@H]4CC[C@]3(C)[C@H]1[C@@H]2C,IC50,L02,34.3 µM
same,IC50,HepG2,10.4 µM
same,IC50,MCF7,> 10 µM
same,IC50,A549,3.2 µM
C[C@@H]1CC[C@@]2(OC1)O[C@H]1C[C@H]3[C@@H]4CC=C5C[C@@H](OC(=O)/C=C\C(=O)N6CCc7ccccc7C6)CC[C@]5(C)[C@H]4CC[C@]3(C)[C@H]1[C@@H]2C,IC50,A549,7.6 µM
C[C@@H]1CC[C@@]2(OC1)O[C@H]1C[C@H]3[C@@H]4CC=C5C[C@@H](OC(=O)CCC(=O)N6CCN(S(=O)(=O)c7ccc(F)cc7)CC6)CC[C@]5(C)[C@H]4CC[C@]3(C)[C@H]1[C@@H]2C,IC50,HepG2,> 10 µM
same,IC50,MCF7,> 10 µM
same,IC50,A549,3.7 µM
CCN(CC)C(=O)/C=C\C(=O)O[C@H]1CC[C@@]2(C)C(=CC[C@H]3[C@@H]4C[C@@H]5O[C@]6(CC[C@@H](C)CO6)[C@@H](C)[C@@H]5[C@@]4(C)CC[C@@H]32)C1,IC50,HepG2,> 10 µM
same,IC50,MCF7,> 10 µM
same,IC50,A549,7.1 µM
C[C@@H]1CC[C@@]2(OC1)O[C@H]1C[C@H]3[C@@H]4CC=C5C[C@@H](OC(=O)c6ccccc6C(=O)N6CCOCC6)CC[C@]5(C)[C@H]4CC[C@]3(C)[C@H]1[C@@H]2C,IC50,HepG2,> 10 µM
same,IC50,MCF7,> 10 µM
CCN(CC)C(=O)c1ccccc1C(=O)O[C@H]1CC[C@@]2(C)C(=CC[C@H]3[C@@H]4C[C@@H]5O[C@]6(CC[C@@H](C)CO6)[C@@H](C)[C@@H]5[C@@]4(C)CC[C@@H]32)C1,IC50,HepG2,> 10 µM
same,IC50,MCF7,> 10 µM
C[C@@H]1CC[C@@]2(OC1)O[C@H]1C[C@H]3[C@@H]4CC=C5C[C@@H](OC(=O)CCC(=O)N6CCN(S(=O)(=O)O)CC6)CC[C@]5(C)[C@H]4CC[C@]3(C)[C@H]1[C@@H]2C,IC50,HepG2,> 10 µM
same,IC50,MCF7,> 10 µM
C[C@@H]1CC[C@@]2(OC1)O[C@H]1C[C@H]3[C@@H]4CC=C5C[C@@H](OC(=O)CCC(=O)N6CCCC6)CC[C@]5(C)[C@H]4CC[C@]3(C)[C@H]1[C@@H]2C,IC50,HepG2,> 10 µM
same,IC50,MCF7,> 10 µM
CCN(CC)C(=O)CCCC(=O)O[C@H]1CC[C@@]2(C)C(=CC[C@H]3[C@@H]4C[C@@H]5O[C@]6(CC[C@@H](C)CO6)[C@@H](C)[C@@H]5[C@@]4(C)CC[C@@H]32)C1,IC50,HepG2,> 10 µM
same,IC50,MCF7,> 10 µM
same,IC50,A549,7.4 µM
C[C@@H]1CC[C@@]2(OC1)O[C@H]1C[C@H]3[C@@H]4CC=C5C[C@@H](OC(=O)CCC(=O)N6CCN(S(=O)(=O)C7CC7)CC6)CC[C@]5(C)[C@H]4CC[C@]3(C)[C@H]1[C@@H]2C,IC50,HepG2,> 10 µM
same,IC50,MCF7,> 10 µM
same,IC50,A549,4.2 µM
C[C@@H]1CC[C@@]2(OC1)O[C@H]1C[C@H]3[C@@H]4CC=C5C[C@@H](OC(=O)CCCC(=O)N6CCOCC6)CC[C@]5(C)[C@H]4CC[C@]3(C)[C@H]1[C@@H]2C,IC50,HepG2,> 10 µM
same,IC50,MCF7,> 10 µM
same,IC50,A549,8.6 µM
C[C@@H]1CC[C@@]2(OC1)O[C@H]1C[C@H]3[C@@H]4CC=C5C[C@@H](OC(=O)CCC(=O)N6CCN(S(=O)(=O)c7ccccc7)CC6)CC[C@]5(C)[C@H]4CC[C@]3(C)[C@H]1[C@@H]2C,IC50,HepG2,> 10 µM
same,IC50,MCF7,> 10 µM
same,IC50,A549,8.7 µM
C[C@@H]1CC[C@@]2(OC1)O[C@H]1C[C@H]3[C@@H]4CC=C5C[C@@H](OC(=O)CCC(=O)N6CCc7ccccc7C6)CC[C@]5(C)[C@H]4CC[C@]3(C)[C@H]1[C@@H]2C,IC50,HepG2,> 10 µM
same,IC50,MCF7,> 10 µM
C[C@@H]1CC[C@@]2(OC1)O[C@H]1C[C@H]3[C@@H]4CC=C5C[C@@H](OC(=O)CCCC(=O)N6CCc7ccccc7C6)CC[C@]5(C)[C@H]4CC[C@]3(C)[C@H]1[C@@H]2C,IC50,HepG2,> 10 µM
same,IC50,MCF7,> 10 µM
C[C@@H]1CC[C@@]2(OC1)O[C@H]1C[C@H]3[C@@H]4CC=C5C[C@@H](OC(=O)CCC(=O)N6CC[N+](Cc7ccc(Cl)cc7)(Cc7ccc(Cl)cc7)CC6)CC[C@]5(C)[C@H]4CC[C@]3(C)[C@H]1[C@@H]2C,IC50,HepG2,> 10 µM
same,IC50,MCF7,> 10 µM
same,IC50,A549,5.4 µM
C[C@@H]1CC[C@@]2(OC1)O[C@H]1C[C@H]3[C@@H]4CC=C5C[C@@H](OC(=O)CCCC(=O)N6CCCC6)CC[C@]5(C)[C@H]4CC[C@]3(C)[C@H]1[C@@H]2C,IC50,HepG2,8.3 µM
same,IC50,MCF7,> 10 µM
same,IC50,A549,5.6 µM
C[C@@H]1CC[C@@]2(OC1)O[C@H]1C[C@H]3[C@@H]4CC=C5C[C@@H](OC(=O)c6ccccc6C(=O)N6CCc7ccccc7C6)CC[C@]5(C)[C@H]4CC[C@]3(C)[C@H]1[C@@H]2C,IC50,HepG2,> 10 µM
same,IC50,MCF7,> 10 µM
CCS(=O)(=O)N1CCN(C(=O)CCC(=O)O[C@H]2CC[C@@]3(C)C(=CC[C@H]4[C@@H]5C[C@@H]6O[C@]7(CC[C@@H](C)CO7)[C@@H](C)[C@@H]6[C@@]5(C)CC[C@@H]43)C2)CC1,IC50,HepG2,> 10 µM
same,IC50,MCF7,> 10 µM
same,IC50,A549,6.2 µM
C[C@@H]1CC[C@@]2(OC1)O[C@H]1C[C@H]3[C@@H]4CC=C5C[C@@H](OC(=O)/C=C\C(=O)N6CCOCC6)CC[C@]5(C)[C@H]4CC[C@]3(C)[C@H]1[C@@H]2C,IC50,HepG2,> 10 µM
same,IC50,MCF7,> 10 µM
same,IC50,A549,5.5 µM
CC(=O)O[C@H]1C(=O)[C@@]2(C)[C@H]([C@H](OC(=O)c3ccccc3)[C@]3(O)C[C@H](OC(=O)[C@H](O)[C@@H](NC(=O)c4ccccc4)c4ccccc4)C(C)=C1C3(C)C)[C@]1(OC(C)=O)CO[C@@H]1C[C@@H]2O [PACLITAXEL],IC50,L02,> 100 µM
same,IC50,A549,5.4 µM
C[C@@H]1CC[C@@]2(OC1)O[C@H]1C[C@H]3[C@@H]4CC=C5C[C@@H](O)CC[C@]5(C)[C@H]4CC[C@]3(C)[C@H]1[C@@H]2C [DISOGENIN],IC50,HepG2,> 10 µM
same,IC50,MCF7,> 10 µM
same,IC50,A549,> 10 µM
CCN(CC)C(=O)CCC(=O)O[C@H]1CC[C@@]2(C)C(=CC[C@H]3[C@@H]4C[C@@H]5O[C@]6(CC[C@@H](C)CO6)[C@@H](C)[C@@H]5[C@@]4(C)CC[C@@H]32)C1,IC50,HepG2,> 10 µM
same,IC50,MCF7,> 10 µM
same,IC50,A549,4.5 µM
C[C@@H]1CC[C@@]2(OC1)O[C@H]1C[C@H]3[C@@H]4CC=C5C[C@@H](OC(=O)/C=C\C(=O)N6CCNCC6)CC[C@]5(C)[C@H]4CC[C@]3(C)[C@H]1[C@@H]2C,IC50,L02,39.1 µM
same,IC50,HepG2,> 10 µM
same,IC50,MCF7,2.3 µM
